# Measured values published in US10602743B2, “Method of inducing drought/salt tolerance using Bacillus megaterium” (Marrone Bio Innovations, Inc., priority 2012, dated 2020).
# Counter-ions that a name gives are not always drawn.
# Legend:
# Format in all cases: cell-based
# Bacillus megaterium J142 = test: Antibiotic susceptibility, antibiotic disks on Muller-Hinton medium; set-up: key: +++ (very); ++ (somewhat); + (marginally); resistance is indicated by (−); details: antibiotic disk, 48-hour incubation at 25° C.
# Method: (§1) Antibiotic susceptibility of Bacillus megaterium strains H491, J142 and M018 was tested using antibiotic disks on Muller-Hinton medium as described in PML Microbiological's technical data sheet #535.
# Bacillus megaterium H491 = test: as above; set-up: key: +++ (very); ++ (somewhat); + (marginally); resistance is indicated by (−); details: antibiotic disk, 48-hour incubation at 25° C.
# Method: as §1
# Bacillus megaterium M018 = test: as above; set-up: key: +++ (very); ++ (somewhat); + (marginally); resistance is indicated by (−); details: antibiotic disk, 48-hour incubation at 25° C.
# Method: as §1
# [1] = tested on: Bacillus megaterium strain H491; test: Chemical sensitivity, Biolog Phenotypic Microarray; details: Biolog Phenotypic Microarray; for H491 susceptible to compound: 25° C.; for Resistance of H491 observed in wells containing compound: at a maximum concentration of 4 ug
Compound,H491 susceptible to compound [1],other results
C[C@@H](O)[C@H]1C(=O)N2C(C(=O)O)=C(SCCN=CN)C[C@H]12 [Imipenem],,Susceptibility degree of J142 (Bacillus megaterium J142): +++; Susceptibility degree of H491 (Bacillus megaterium H491): +++; Susceptibility degree of M018 (Bacillus megaterium M018): +++
CO/N=C(\C(=O)N[C@@H]1C(=O)N2C(C(=O)O)=C(COC(N)=O)CS[C@H]12)c1ccco1 [Cefuroxime],susceptible,Susceptibility degree of J142 (Bacillus megaterium J142): +++; Susceptibility degree of H491 (Bacillus megaterium H491): +++; Susceptibility degree of M018 (Bacillus megaterium M018): +++
Gentamicin,,Susceptibility degree of J142 (Bacillus megaterium J142): +++; Susceptibility degree of H491 (Bacillus megaterium H491): +++; Susceptibility degree of M018 (Bacillus megaterium M018): +++; Resistance of H491 observed in wells containing compound [1]: Resistance
NC[C@H]1O[C@H](O[C@H]2[C@H](O)[C@@H](O[C@H]3O[C@H](CO)[C@@H](O)[C@H](N)[C@H]3O)[C@H](N)C[C@@H]2N)[C@H](O)[C@@H](O)[C@@H]1O [Kanamycin],,Susceptibility degree of J142 (Bacillus megaterium J142): +++; Susceptibility degree of H491 (Bacillus megaterium H491): +++; Susceptibility degree of M018 (Bacillus megaterium M018): +++
O=C(O)c1cn(C2CC2)c2cc(N3CCNCC3)c(F)cc2c1=O [Ciprofloxacin],,Susceptibility degree of J142 (Bacillus megaterium J142): +++; Susceptibility degree of H491 (Bacillus megaterium H491): +++; Susceptibility degree of M018 (Bacillus megaterium M018): +++
CN(C)[C@@H]1C(O)=C(C(N)=O)C(=O)[C@@]2(O)C(O)=C3C(=O)c4c(O)cccc4[C@@](C)(O)[C@H]3C[C@@H]12 [Tetracycline],,Susceptibility degree of J142 (Bacillus megaterium J142): +++; Susceptibility degree of H491 (Bacillus megaterium H491): +++; Susceptibility degree of M018 (Bacillus megaterium M018): +++
CCN1CCN(C(=O)N[C@@H](C(=O)N[C@@H]2C(=O)N3[C@@H]2SC(C)(C)[C@@H]3C(=O)O)c2ccccc2)C(=O)C1=O [Piperacillin],,Susceptibility degree of J142 (Bacillus megaterium J142): +; Susceptibility degree of H491 (Bacillus megaterium H491): +++; Susceptibility degree of M018 (Bacillus megaterium M018): ++
CN(C)[C@@H]1C(O)=C(C(N)=O)C(=O)[C@@]2(O)C(O)=C3C(=O)c4c(O)cccc4[C@@](C)(O)[C@H]3[C@H](O)[C@@H]12 [Oxytetracycline],,Susceptibility degree of J142 (Bacillus megaterium J142): +++; Susceptibility degree of H491 (Bacillus megaterium H491): +++; Susceptibility degree of M018 (Bacillus megaterium M018): +++
O=c1[nH]cc(F)c(=O)[nH]1 [5-Fluorouracil],susceptible,
CC(=O)[O-].[Tl+] [Thallium (I) acetate],susceptible,
"CO[C@H]1C[C@H](O[C@H]2[C@H](C)[C@@H](O[C@@H]3O[C@H](C)C[C@H](N(C)C)[C@H]3O)[C@@H](C)C[C@@]3(CO3)C(=O)[C@H](C)[C@@H](O)[C@@H](C)[C@@H](C)OC(=O)[C@@H]2C)O[C@@H](C)[C@@H]1O [Oleandomycin, phosphate salt]",susceptible,
O.Sc1ncnc2nc[nH]c12 [6-Mercaptopurine monohydrate],susceptible,
CC1(C)S[C@@H]2[C@H](NC(=O)[C@H](N)c3ccccc3)C(=O)N2[C@H]1C(=O)O [Ampicillin],,Susceptibility degree of J142 (Bacillus megaterium J142): +++; Susceptibility degree of H491 (Bacillus megaterium H491): +++; Susceptibility degree of M018 (Bacillus megaterium M018): ++; Resistance of H491 observed in wells containing compound [1]: Resistance
CN(C)CCCN1c2ccccc2Sc2ccc(Cl)cc21 [Chlorpromazine],susceptible,
bleomycin,,Resistance of H491 observed in wells containing compound [1]: Resistance
NC(=O)NO [Hydroxyurea],susceptible,
"O=C(O)CCCCC1CCSS1 (racemic) [D,L-Thioctic acid]",susceptible,
N=C(N)N [Guanidine hydrochloride],susceptible,
Phleomycin,susceptible,

Compound,H491 susceptible to compound [1],other results
Nc1ccc(S(=O)(=O)Nc2ncccn2)cc1 [Sulfadiazine],susceptible,
COc1ccc(C[C@H](N)C(=O)N[C@H]2[C@@H](O)[C@H](n3cnc4c(N(C)C)ncnc43)O[C@@H]2CO)cc1 [Puromycin],susceptible,
Niaproof,susceptible,
Nc1ccc2cc3ccc(N)cc3nc2c1 [Proflavine],susceptible,
CC(C)(C)CC(C)(C)c1ccc(OCCOCC[N+](C)(C)Cc2ccccc2)cc1 [Benzethonium Chloride],susceptible,
CC1(C)S[C@@H]2[C@H](NC(=O)C(C(=O)O)c3ccccc3)C(=O)N2[C@H]1C(=O)O (stereo partly shown) [Carbenicillin],susceptible,
CO[C@@H]1[C@@H](O[C@@H]2O[C@H](C)[C@@H](O[C@H]3C[C@@](C)(O)[C@@H](OC(=O)CC(C)C)[C@H](C)O3)[C@H](N(C)C)[C@H]2O)[C@@H](CC=O)C[C@@H](C)[C@@H](O)/C=C/C=C/C[C@@H](C)OC(=O)C[C@H]1OC(C)=O [Josamycin],susceptible,
NNC(N)=O [Semicarbazide hydrochloride],susceptible,
"Cc1ccc2c(Cl)cc(Cl)c(O)c2n1 [5,7-Dichloro-8-hydroxyquinaldine]",susceptible,
Nc1ccc(S(=O)(=O)Nc2nccs2)cc1 [Sulfathiazole],susceptible,
CCn1cc(C(=O)O)c(=O)c2cc(F)c(N3CCNCC3)nc21 [Enoxacin],susceptible,
O=C(O)/C=C/c1ccccc1 [trans-Cinnamic acid],susceptible,
[H]/N=C(/N)N[C@H]1[C@H](O)[C@@H](O)[C@H](O[C@@H]2O[C@@H](C)[C@](O)(C=O)[C@H]2O[C@@H]2O[C@@H](CO)[C@H](O)[C@@H](O)[C@@H]2NC)[C@@H](N/C(N)=N\[H])[C@@H]1O [Streptomycin],susceptible,Susceptibility degree of J142 (Bacillus megaterium J142): +++; Susceptibility degree of H491 (Bacillus megaterium H491): +++; Susceptibility degree of M018 (Bacillus megaterium M018): +
NCC[C@H](O)C(=O)N[C@@H]1C[C@H](N)[C@@H](O[C@H]2O[C@H](CN)[C@@H](O)[C@H](O)[C@H]2O)[C@H](O)[C@H]1O[C@H]1O[C@H](CO)[C@@H](O)[C@H](N)[C@H]1O [amikacin],,Resistance of H491 observed in wells containing compound [1]: Resistance
C[n+]1cc2c3c(ccc2c2ccc4cc5c(cc4c21)OCO5)OCO3 [Sanguinarine chloride],susceptible,
Cc1onc(-c2ccccc2)c1C(=O)N[C@@H]1C(=O)N2[C@@H]1SC(C)(C)[C@@H]2C(=O)O [Oxacillin],susceptible,
O=C(O)c1ccccc1S [Thiosalicylate],susceptible,
On1ccccc1=S [1-Hydroxypyridine-2-thione],susceptible,
N[C@@H]1CONC1=O [D-Cycloserine],susceptible,

Compound,H491 susceptible to compound [1],other results
CCCCCCCCCCCC[N+](C)(C)C.[Br-] [Dodecyltrimethyl ammonium bromide],susceptible,
Penicillin,,Susceptibility degree of J142 (Bacillus megaterium J142): −; Susceptibility degree of H491 (Bacillus megaterium H491): +++; Susceptibility degree of M018 (Bacillus megaterium M018): ++
"O=C(O)CN(CCOCCOCCN(CC(=O)O)CC(=O)O)CC(=O)O [Ethylene Glycol-bis(b-Aminoethyl ether)-N,N,N′,N′-Tetraacetic Acid]",susceptible,
C[C@H]1O[C@@H](n2cc(F)c(=O)[nH]c2=O)[C@H](O)[C@@H]1O [5-Fluoro-5′-deoxyuridine],susceptible,
CSc1ccc2c(c1)N(CCC1CCCCN1C)c1ccccc1S2 (stereo not shown) [Thioridazine],susceptible,
CN(C)C(=O)/N=N/C(=O)N(C)C [Diamide],susceptible,
CCOc1ccc2ccccc2c1C(=O)N[C@@H]1C(=O)N2[C@@H]1SC(C)(C)[C@@H]2C(=O)O [Nafcillin],susceptible,
N#CC(C#N)=NNc1cccc(Cl)c1 [Carbonyl-cyanide m-chlorophenylhydrazone],susceptible,
"Cc1cc(O)cc(C)c1Cl [4-Chloro-3,5-dimethyl-phenol]",susceptible,
CC[C@H]1OC(=O)[C@H](C)[C@@H](O[C@H]2C[C@@](C)(OC)[C@@H](O)[C@H](C)O2)[C@H](C)[C@@H](O[C@@H]2O[C@H](C)C[C@H](N(C)C)[C@H]2O)[C@](C)(O)C[C@@H](C)C(=O)[C@H](C)[C@@H](O)[C@]1(C)O [Erythromycin],susceptible,Susceptibility degree of J142 (Bacillus megaterium J142): +++; Susceptibility degree of H491 (Bacillus megaterium H491): +++; Susceptibility degree of M018 (Bacillus megaterium M018): +++
O=C(N[C@H](CO)[C@H](O)c1ccc([N+](=O)[O-])cc1)C(Cl)Cl [Chloramphenicol],,Susceptibility degree of J142 (Bacillus megaterium J142): +++; Susceptibility degree of H491 (Bacillus megaterium H491): +++; Susceptibility degree of M018 (Bacillus megaterium M018): ++
CS(=O)(=O)c1ccc([C@@H](O)[C@@H](CO)NC(=O)C(Cl)Cl)cc1 [Thiamphenicol],susceptible,
"CC(C)c1nc2nc(N)nc(N)c2nc1C(C)C [2,4-Diamino-6,7-diisopropylpteridine]",susceptible,
"O=[N+]([O-])c1ccc(O)c([N+](=O)[O-])c1 [2,4-Dintrophenol]",susceptible,
O=B[O-].[Na+] [Sodium metaborate],susceptible,
c1ccc(-c2nn(-c3ccccc3)[n+](-c3cccc4ccccc34)n2)cc1 [Tetrazolium violet],susceptible,
CN(C)[C@@H]1C(O)=C(C(N)=O)C(=O)[C@@]2(O)C(O)=C3C(=O)c4c(O)ccc(Cl)c4[C@@H](O)[C@H]3C[C@@H]12 [Demeclocycline],susceptible,
"O.c1cnc2c(c1)ccc1cccnc12 [1,10-Phenanthroline Monohydrate]",susceptible,
Cn1c(=O)c2c(ncn2C)n(C)c1=O [Caffeine],susceptible,
